1 molecule from publication PMC5218480 (PLoS ONE, 2017) can be followed below.

This assay has as its system MV-4-11 cells. Description: Gene expression microarray analysis (Affymetrix PrimeView) and GSEA. Format: cell-based, human. Details: RFU PODN (11730768_x_at) / Fold change /veh PODN (11730768_x_at) / RFU LINC00158 (11744669_a_at) / Fold change /veh LINC00158 (11744669_a_at) / RFU DUSP10 (11751237_a_at) / Fold change /veh DUSP10 (11751237_a_at) / RFU ID3 (11757404_x_at) / Fold change /veh ID3 (11757404_x_at) / RFU PLEKHG5 (11737974_s_at) / Fold change /veh PLEKHG5 (11737974_s_at) / RFU LRRC4B (11730491_at) / Fold change /veh LRRC4B (11730491_at) / RFU GIMAP4 (11747438_a_at) / Fold change /veh GIMAP4 (11747438_a_at) / RFU KRT8 (11758183_x_at) / Fold change /veh KRT8 (11758183_x_at) / RFU CNN1 (11734310_a_at) / Fold change /veh CNN1 (11734310_a_at) / RFU VPS37D (11726825_at) / Fold change /veh VPS37D (11726825_at) / RFU C10orf10 (11716522_x_at) / Fold change /veh C10orf10 (11716522_x_at) / RFU KIR2DL2 /// KIR2DL4 /// KIR2DL5A /// KIR2DL5B /// KIR2DS1 /// KIR2DS2 /// KIR2DS3 /// KIR2DS4 /// KIR3DL3 /// KIR3DL3 /// KIR3DS1 (11738374_at) / Fold change /veh KIR2DL2 /// KIR2DL4 /// KIR2DL5A /// KIR2DL5B /// KIR2DS1 /// KIR2DS2 /// KIR2DS3 /// KIR2DS4 /// KIR3DL3 /// KIR3DL3 /// KIR3DS1 (11738374_at) / RFU C1QL1 (11718748_at) / Fold change /veh C1QL1 (11718748_at) / RFU TMPRSS4 (11747572_a_at) / Fold change /veh TMPRSS4 (11747572_a_at) / RFU HAMP (11756126_x_at) / Fold change /veh HAMP (11756126_x_at) / RFU RNFT2 (11725882_a_at) / Fold change /veh RNFT2 (11725882_a_at) / RFU NR4A2 (11747474_a_at) / Fold change /veh NR4A2 (11747474_a_at) / RFU ABCC12 (11746883_a_at) / Fold change /veh ABCC12 (11746883_a_at) / RFU TMEM136 (11760407_x_at) / Fold change /veh TMEM136 (11760407_x_at) / RFU CLDN22 /// WWC2 (11732394_at) / Fold change /veh CLDN22 /// WWC2 (11732394_at) / RFU HLA-DPB1 (11760878_x_at) / Fold change /veh HLA-DPB1 (11760878_x_at) / RFU SPINT1 (11716480_a_at) / Fold change /veh SPINT1 (11716480_a_at) / RFU GAP43 (11754022_s_at) / Fold change /veh GAP43 (11754022_s_at) / RFU A4GNT (11735810_at) / Fold change /veh A4GNT (11735810_at) / RFU PRB3 (11715151_x_at) / Fold change /veh PRB3 (11715151_x_at) / RFU TUBB4B (11761932_at) / Fold change /veh TUBB4B (11761932_at) / RFU CAPN14 (11732068_a_at) / Fold change /veh CAPN14 (11732068_a_at) / RFU TMCC2 (11721928_a_at) / Fold change /veh TMCC2 (11721928_a_at) / RFU IRGQ (11745062_a_at) / Fold change /veh IRGQ (11745062_a_at) / RFU FAM174B (11720279_a_at) / Fold change /veh FAM174B (11720279_a_at) / RFU TMPRSS4 (11748680_a_at) / Fold change /veh TMPRSS4 (11748680_a_at) / RFU FAM212B (11763350_a_at) / Fold change /veh FAM212B (11763350_a_at) / RFU PLEKHG5 (11743358_a_at) / Fold change /veh PLEKHG5 (11743358_a_at) / RFU ZSCAN30 (11745921_a_at) / Fold change /veh ZSCAN30 (11745921_a_at) / RFU CMKLR1 (11741424_a_at) / Fold change /veh CMKLR1 (11741424_a_at) / RFU LOC101060620 /// MAPK8IP1 (11723275_at) / Fold change /veh LOC101060620 /// MAPK8IP1 (11723275_at) / RFU SPTSSB (11747773_x_at) / Fold change /veh SPTSSB (11747773_x_at) / RFU PRSS12 (11739890_at) / Fold change /veh PRSS12 (11739890_at) / RFU BIN1 (11741810_x_at) / Fold change /veh BIN1 (11741810_x_at) / RFU WNT11 (11732464_a_at) / Fold change /veh WNT11 (11732464_a_at) / RFU C10orf10 (11716521_a_at) / Fold change /veh C10orf10 (11716521_a_at) / RFU C5orf56 (11738089_at) / Fold change /veh C5orf56 (11738089_at) / RFU CYB561 (11721691_x_at) / Fold change /veh CYB561 (11721691_x_at) / RFU ANKRD19P (11752326_a_at) / Fold change /veh ANKRD19P (11752326_a_at) / RFU OR2T12 /// OR2T33 /// OR2T8 (11738714_s_at) / Fold change /veh OR2T12 /// OR2T33 /// OR2T8 (11738714_s_at) / RFU VCAN (11748164_a_at) / Fold change /veh VCAN (11748164_a_at) / RFU JSRP1 (11732532_at) / Fold change /veh JSRP1 (11732532_at) / RFU KRTAP10-11 (11738290_x_at) / Fold change /veh KRTAP10-11 (11738290_x_at) / RFU MYO3A (11730013_a_at) / Fold change /veh MYO3A (11730013_a_at) / RFU EBF3 (11725865_a_at) / Fold change /veh EBF3 (11725865_a_at) / RFU CAMK2N1 (11719241_x_at) / Fold change /veh CAMK2N1 (11719241_x_at) / RFU C5orf56 (11738088_a_at) / Fold change /veh C5orf56 (11738088_a_at) / RFU OLFML3 (11715873_a_at) / Fold change /veh OLFML3 (11715873_a_at) / RFU LOC100653217 /// NTM (11731650_a_at) / Fold change /veh LOC100653217 /// NTM (11731650_a_at) / RFU MAPK11 (11762145_a_at) / Fold change /veh MAPK11 (11762145_a_at) / RFU FIZ1 (11724087_x_at) / Fold change /veh FIZ1 (11724087_x_at) / RFU OASL (11726364_x_at) / Fold change /veh OASL (11726364_x_at) / RFU SOX15 (11748057_x_at) / Fold change /veh SOX15 (11748057_x_at) / RFU CD79A (11719716_a_at) / Fold change /veh CD79A (11719716_a_at) / RFU HIST1H1D (11736915_at) / Fold change /veh HIST1H1D (11736915_at) / RFU CASKIN2 (11723855_a_at) / Fold change /veh CASKIN2 (11723855_a_at) / RFU LOC730098 (11760151_x_at) / Fold change /veh LOC730098 (11760151_x_at) / RFU OR4N2 (11742367_at) / Fold change /veh OR4N2 (11742367_at) / RFU PRRT2 (11749266_a_at) / Fold change /veh PRRT2 (11749266_a_at) / RFU SNX32 (11753110_a_at) / Fold change /veh SNX32 (11753110_a_at) / RFU CDHR5 (11726645_a_at) / Fold change /veh CDHR5 (11726645_a_at) / RFU RCAN1 (11760418_a_at) / Fold change /veh RCAN1 (11760418_a_at) / RFU FAM167A (11723789_a_at) / Fold change /veh FAM167A (11723789_a_at) / RFU FAM26E (11764081_at) / Fold change /veh FAM26E (11764081_at) / RFU ISYNA1 (11749810_s_at) / Fold change /veh ISYNA1 (11749810_s_at) / RFU ACY1 (11761880_at) / Fold change /veh ACY1 (11761880_at) / RFU 11764098_at / Fold change /veh 11764098_at / RFU SAMD14 (11745864_x_at) / Fold change /veh SAMD14 (11745864_x_at) / RFU NPB (11741838_a_at) / Fold change /veh NPB (11741838_a_at) / RFU TMPRSS6 (11731388_a_at) / Fold change /veh TMPRSS6 (11731388_a_at) / RFU KRTAP10-2 (11738614_at) / Fold change /veh KRTAP10-2 (11738614_at) / RFU ARHGAP8 /// PRR5-ARHGAP8 (11727945_x_at) / Fold change /veh ARHGAP8 /// PRR5-ARHGAP8 (11727945_x_at) / RFU KRTAP5-7 /// NADSYN1 (11734609_at) / Fold change /veh KRTAP5-7 /// NADSYN1 (11734609_at) / RFU RASL12 (11751679_a_at) / Fold change /veh RASL12 (11751679_a_at) / RFU CDKN2B (11736163_a_at) / Fold change /veh CDKN2B (11736163_a_at) / RFU PRF1 (11729649_at) / Fold change /veh PRF1 (11729649_at) / RFU, ZNF638 /// ZNF638-IT1 / Fold change vs veh, ZNF638 /// ZNF638-IT1 / RFU, PANK3 / Fold change vs veh, PANK3 / RFU, SH3YL1 / Fold change vs veh, SH3YL1 / RFU, ZEB2 / Fold change vs veh, ZEB2 / RFU, NRIP1 / Fold change vs veh, NRIP1 / RFU, PTTG1IP / Fold change vs veh, PTTG1IP / RFU, CAPN2 / Fold change vs veh, CAPN2 / RFU, MED14 / Fold change vs veh, MED14 / RFU, SNORA58 / Fold change vs veh, SNORA58 / RFU, C1orf63 / Fold change vs veh, C1orf63 / RFU, LRRFIP1 / Fold change vs veh, LRRFIP1 / RFU, NDUFAF7 / Fold change vs veh, NDUFAF7 / RFU, SLC12A2 / Fold change vs veh, SLC12A2 / RFU, IBTK / Fold change vs veh, IBTK / RFU, ESF1 / Fold change vs veh, ESF1 / Fold change vs veh, TMEM50B / RFU, TAOK1 / Fold change vs veh, TAOK1 / RFU, ACBD3 / Fold change vs veh, ACBD3 / RFU, TMA16 / Fold change vs veh, TMA16 / RFU, RWDD3 / Fold change vs veh, RWDD3 / RFU, BCAT1 / Fold change vs veh, BCAT1 / RFU, EDEM3 / Fold change vs veh, EDEM3 / RFU, TMEM33 / Fold change vs veh, TMEM33 / RFU, WDR75 / Fold change vs veh, WDR75 / RFU, AHCTF1 / Fold change vs veh, AHCTF1 / RFU, TFRC / Fold change vs veh, TFRC / RFU, ZDHHC17 / Fold change vs veh, ZDHHC17 / RFU, NOM1 / Fold change vs veh, NOM1 / RFU, ARL8B / Fold change vs veh, ARL8B / RFU, ZBTB11 / Fold change vs veh, ZBTB11 / RFU, TAMM41 / Fold change vs veh, TAMM41 / RFU, KIAA1704 /// LOC100996395 / Fold change vs veh, KIAA1704 /// LOC100996395 / RFU, ING1 / Fold change vs veh, ING1 / RFU, TRMT61B / Fold change vs veh, TRMT61B / RFU, FUBP3 / Fold change vs veh, FUBP3 / RFU, TP53 / Fold change vs veh, TP53 / RFU, TNKS2 / Fold change vs veh, TNKS2 / RFU, ZFP14 / Fold change vs veh, ZFP14 / RFU, ACTR2 / Fold change vs veh, ACTR2 / RFU, PPP3R1 / Fold change vs veh, PPP3R1 / RFU, PIK3R1 / Fold change vs veh, PIK3R1 / RFU, HNRNPA1 / Fold change vs veh, HNRNPA1 / RFU, RNF170 / Fold change vs veh, RNF170 / RFU, ZNF28 / Fold change vs veh, ZNF28 / RFU, RNGTT / Fold change vs veh, RNGTT / RFU, OGT / Fold change vs veh, OGT / RFU, BRD1 / Fold change vs veh, BRD1 / RFU, MARS / Fold change vs veh, MARS / RFU, ZNF655 / Fold change vs veh, ZNF655 / RFU, FAHD1 / Fold change vs veh, FAHD1 / RFU, BDP1 / Fold change vs veh, BDP1 / RFU, LRRCC1 / Fold change vs veh, LRRCC1 / RFU, ARID1A / Fold change vs veh, ARID1A / RFU, ZNF146 / Fold change vs veh, ZNF146 / RFU, ZNF330 / Fold change vs veh, ZNF330 / RFU, GPN3 / Fold change vs veh, GPN3 / RFU, C9orf123 / Fold change vs veh, C9orf123 / RFU, N4BP2L2 / Fold change vs veh, N4BP2L2 / RFU, ARFIP1 / Fold change vs veh, ARFIP1 / RFU, FAM179B / Fold change vs veh, FAM179B / RFU, BCL10 / Fold change vs veh, BCL10 / RFU, UHRF1BP1L / Fold change vs veh, UHRF1BP1L / RFU, BET1 / Fold change vs veh, BET1 / RFU, CNOT2 / Fold change vs veh, CNOT2 / RFU, ZNF268 / Fold change vs veh, ZNF268 / Fold change vs veh, ZNF507 / RFU, DGCR2 / Fold change vs veh, DGCR2 / RFU, WDSUB1 / Fold change vs veh, WDSUB1 / Fold change vs veh, HSP90B1 /// MIR3652 / RFU, ADSS / Fold change vs veh, ADSS / RFU, GK / Fold change vs veh, GK / RFU, ZNF148 / Fold change vs veh, ZNF148 / RFU, TAF9 / Fold change vs veh, TAF9 / RFU, SLC1A5 / Fold change vs veh, SLC1A5 / RFU, SLMO2 / Fold change vs veh, SLMO2 / RFU, ABCC4 / Fold change vs veh, ABCC4 / RFU, LOC101060439 /// RAP1B / Fold change vs veh, LOC101060439 /// RAP1B / RFU, RFX7 / Fold change vs veh, RFX7 / RFU, GTPBP10 / Fold change vs veh, GTPBP10 / RFU, CNEP1R1 / Fold change vs veh, CNEP1R1 / RFU, BIVM-ERCC5 /// ERCC5 / Fold change vs veh, BIVM-ERCC5 /// ERCC5 / RFU, ILF3 / Fold change vs veh, ILF3 / RFU 11762660_at / Fold change /veh 11762660_at / RFU VCAN (11757783_s_at) / Fold change /veh VCAN (11757783_s_at) / RFU DDX43 (11728927_at) / Fold change /veh DDX43 (11728927_at) / RFU KRT8 (11758188_x_at) / Fold change /veh KRT8 (11758188_x_at) / RFU NKD1 (11759106_at) / Fold change /veh NKD1 (11759106_at) / RFU SRD5A1 (11742802_a_at) / Fold change /veh SRD5A1 (11742802_a_at) / RFU TPSAB1 /// TPSB2 (11721975_s_at) / Fold change /veh TPSAB1 /// TPSB2 (11721975_s_at) / RFU GSTM3 (11746129_a_at) / Fold change /veh GSTM3 (11746129_a_at) / RFU IL23R (11737362_x_at) / Fold change /veh IL23R (11737362_x_at) / RFU TMEM51 (11727254_a_at) / Fold change /veh TMEM51 (11727254_a_at) / RFU PIWIL2 (11732686_x_at) / Fold change /veh PIWIL2 (11732686_x_at) / RFU ORM1 (11744905_x_at) / Fold change /veh ORM1 (11744905_x_at) / RFU CCDC152 (11743942_at) / Fold change /veh CCDC152 (11743942_at) / RFU ECM1 (11717891_a_at) / Fold change /veh ECM1 (11717891_a_at) / RFU IL23R (11748794_a_at) / Fold change /veh IL23R (11748794_a_at) / RFU TNFAIP8L3 (11732012_x_at) / Fold change /veh TNFAIP8L3 (11732012_x_at) / RFU MBOAT4 (11741988_at) / Fold change /veh MBOAT4 (11741988_at) / RFU 11764193_at / Fold change /veh 11764193_at / RFU TMEM53 (11763286_at) / Fold change /veh TMEM53 (11763286_at) / RFU MAGEB2 (11727129_at) / Fold change /veh MAGEB2 (11727129_at) / RFU TMEM200A (11744735_a_at) / Fold change /veh TMEM200A (11744735_a_at) / RFU CCDC152 (11751479_a_at) / Fold change /veh CCDC152 (11751479_a_at) / RFU FAM211A (11726209_a_at) / Fold change /veh FAM211A (11726209_a_at) / RFU RGS16 (11746705_a_at) / Fold change /veh RGS16 (11746705_a_at) / RFU VCAN (11755009_s_at) / Fold change /veh VCAN (11755009_s_at) / RFU RHOB (11743442_s_at) / Fold change /veh RHOB (11743442_s_at) / RFU RGS16 (11720943_a_at) / Fold change /veh RGS16 (11720943_a_at) / RFU RGS16 (11720944_at) / Fold change /veh RGS16 (11720944_at) / RFU, VPS4B / Fold change vs veh, VPS4B / RFU, CREB1 / Fold change vs veh, CREB1 / RFU, DNAJC13 / Fold change vs veh, DNAJC13 / RFU, GNAQ / Fold change vs veh, GNAQ / RFU, CDK5R1 / Fold change vs veh, CDK5R1 / RFU, ZRANB3 / Fold change vs veh, ZRANB3 / RFU, CUL4A / Fold change vs veh, CUL4A / RFU, CCNY / Fold change vs veh, CCNY / RFU, UFL1 / Fold change vs veh, UFL1 / RFU, COG3 / Fold change vs veh, COG3 / RFU, DIAPH2 / Fold change vs veh, DIAPH2 / RFU, SKA2 / Fold change vs veh, SKA2 / RFU, AFF3 / Fold change vs veh, AFF3 / RFU, LMF1 / Fold change vs veh, LMF1 / RFU, IPO11 / Fold change vs veh, IPO11 / RFU, DFFB / Fold change vs veh, DFFB / RFU, FOXP1 / Fold change vs veh, FOXP1 / RFU, CARD8 / Fold change vs veh, CARD8 / RFU, STRN3 / Fold change vs veh, STRN3 / RFU, ADK / Fold change vs veh, ADK / RFU, RASSF2 / Fold change vs veh, RASSF2 / RFU, WIPF1 / Fold change vs veh, WIPF1 / RFU, LARP1B / Fold change vs veh, LARP1B / RFU, RASA1 / Fold change vs veh, RASA1 / RFU, RB1 / Fold change vs veh, RB1 / RFU, PPFIA1 / Fold change vs veh, PPFIA1 / RFU, MAT2A / Fold change vs veh, MAT2A / RFU, CCT5 / Fold change vs veh, CCT5 / RFU, WDR92 / Fold change vs veh, WDR92 / RFU, CUX1 / Fold change vs veh, CUX1 / RFU, TTC7A / Fold change vs veh, TTC7A / RFU, TMEM135 / Fold change vs veh, TMEM135 / RFU, DEPTOR / Fold change vs veh, DEPTOR / RFU, CPM / Fold change vs veh, CPM / RFU, DNAJB6 / Fold change vs veh, DNAJB6 / RFU, CACNA2D3 / Fold change vs veh, CACNA2D3 / RFU, DTX4 / Fold change vs veh, DTX4 / RFU, TFCP2 / Fold change vs veh, TFCP2 / RFU, GMCL1 /// GMCL1P1 / Fold change vs veh, GMCL1 /// GMCL1P1 / RFU, AEBP2 / Fold change vs veh, AEBP2 / RFU, SNHG1 /// SNORD22 /// SNORD25 /// SNORD26 /// SNORD27 /// SNORD28 /// SNORD29 /// SNORD31 / Fold change vs veh, SNHG1 /// SNORD22 /// SNORD25 /// SNORD26 /// SNORD27 /// SNORD28 /// SNORD29 /// SNORD31 / Fold change (Aza/veh), C12orf56 (ProbeSet 11735607_a_at) / Fold change (ACY-1035/veh), C12orf56 (ProbeSet 11735607_a_at) / Fold change (Aza/veh), FGFR1OP (ProbeSet 11751329_s_at) / Fold change (ACY-1035/veh), FGFR1OP (ProbeSet 11751329_s_at) / Fold change (Aza/veh), VPS36 (ProbeSet 11739960_a_at) / Fold change (ACY-1035/veh), VPS36 (ProbeSet 11739960_a_at) / RFU SYPL1 (11715823_x_at) / Fold change /veh SYPL1 (11715823_x_at) / RFU IGFBP7 (11715501_s_at) / Fold change /veh IGFBP7 (11715501_s_at) / RFU REEP3 (11722064_at) / Fold change /veh REEP3 (11722064_at) / RFU IGLL1 (11728026_x_at) / Fold change /veh IGLL1 (11728026_x_at): dose or concentration left out as unconfirmed. The settings on record: ProbeSet 11716891_at; LIST B.

On to `Nc1ncn([C@@H]2O[C@H](CO)[C@@H](O)[C@H]2O)c(=O)n1` [azacitidine], for which the “Fold change vs veh, C9orf123” value stood at 1.12.
